Tested on: circular corneal fragment extracted from a pig eye ball
Experiment: Corneal walleye/cloudiness and edema of pig corneal fragments soaked in test or control solutions
Set-up: degree of corneal walleye/cloudiness (relative value): scale not given here; key to corneal edema: ◯: Corneal edema was observed.; —: No corneal edema was observed
Conditions: for corneal edema / degree of corneal walleye/cloudiness (relative value): 100 mM in physiological saline
Description: Experiment to examine the influence of cyclic tetrasaccharide on corneal walleye/cloudiness was conducted as follows: A physiological saline containing 100 mM cyclic tetrasaccharide was previously prepared for use as a test solution by dissolving a cyclic tetrasaccharide crystal, pentahydrate, which had been prepared by the later described method in Example for Reference 2. As a positive control solution, it was prepared a physiological saline containing 100 mM α,α-trehalose, a reagent grade specimen, commercialized by Hayashibara Biochemical Laboratories, Inc., Okayama, Japan; and as a negative control solution, physiological saline was used. Two milliliters of any one of the above three kinds of aqueous solutions were added to respective two wells in a commercialized 24-well culture plate. To each well in each culture plate a circular corneal fragment, which had been extracted from a pig eye ball obtained from a slaughterhouse by using a trephine for corneal transplantation, was placed and macroscopically and microscopically observed for changing in both the degree of corneal walleye/cloudiness and the change of corneal shape such as corneal edema. The macroscopic and microscopic observations were done just after the corneas were placed in the wells at (0) and at 1, 2, 6, 24, 48 and 72 hours after their placing. The methods of macroscopic and microscopic observations and the analysis of the time course change of corneal walleye/cloudiness were conducted by the same ones as used in Experiment 1. Tables 3 and 4 show the transition of corneal walleye/cloudiness and that of the corneal edema, respectively.

SMILES: OCC1OC2OCC3O[C@H](O[C@H]4C(O)C(CO)OC(OCC5O[C@H](O[C@@H](C1O)C2O)C(O)C(O)[C@@H]5O)C4O)C(O)C(O)[C@@H]3O (stereo partly drawn) [Test solution, cyclo{→6)-α-D-glucopyranosyl-(1→3)-α-D-glucopyranosyl-(1→6)-α-D-glucopyranosyl-(1→3)-α-D-glucopyranosyl-(1→}]
- corneal edema (1 hour): —
- degree of corneal walleye/cloudiness (relative value) (1 hour): 11
- corneal edema (2 hours): —
- degree of corneal walleye/cloudiness (relative value) (2 hours): 11
- corneal edema (6 hours): —
- degree of corneal walleye/cloudiness (relative value) (6 hours): 13
- corneal edema (24 hours): —
- degree of corneal walleye/cloudiness (relative value) (24 hours): 16
- corneal edema (48 hours): —
- degree of corneal walleye/cloudiness (relative value) (48 hours): 16
- corneal edema (72 hours): —
- degree of corneal walleye/cloudiness (relative value) (72 hours): 19
- corneal edema (time 0): —
- degree of corneal walleye/cloudiness (relative value) (time 0): 10
- corneal edema (in words) (100 mM, up to 72 hours): No occurrence of corneal edema was observed

Reference: patent US20140018316A1, “OPHTHALMIC PHARMACEUTICAL COMPOSITION” (Hayashibara Co., Ltd., priority 2005, published 2014)
